# Experimental data reported in US20110288086A1, “POLYCYCLIC QUINAZOLINES, PREPARATION THEREOF, AND USE THEREOF” (priority 2010, published 2011).
# Where a name gives a salt, the structure may show the parent alone.
# Experiments:
# EGFR tyrosine kinase = EGFR tyrosine kinase (Homo sapiens, UniProt P00533); test: EGFR tyrosine kinase inhibition in vitro (Invitrogen EGFR inhibitor screening kit PV3193)
# Excerpt: The inhibitory activities of EGFR tyrosine kinase in vitro
# Erlotinib hydrochloride was used as a positive control drug.
# [1] = system: K562 human chronicity marrow leukemic cells; test: Tumor cell inhibition ratio, CCK-8 kit, K562; details: K562, read-out: Antiproliferative effect (inhibition ratio) K562
# Excerpt: (§1) The inhibitory activities of the compounds on tumor cells in vitro
# [2] = system: PC-3 human carcinoma of prostate; test: Tumor cell inhibition ratio, CCK-8 kit, PC-3; details: read-out: Antiproliferative effect (inhibition ratio) PC-3
# Excerpt: as §1
# [3] = system: PANC-1 human pancreatic cancer cells; test: Tumor cell inhibition ratio, CCK-8 kit, PANC-1; details: PANC-1, read-out: Antiproliferative effect (inhibition ratio) PANC-1
# Excerpt: as §1
# [4] = system: MDA-MB-435s human breast carcinoma cells; test: Tumor cell inhibition ratio, CCK-8 kit, MDA-MB-435s; details: read-out: Antiproliferative effect (inhibition ratio) 435s
# Excerpt: as §1
# [5] = system: Hep3B2.1-7 human hepatoma carcinoma cells; test: Tumor cell inhibition ratio, CCK-8 kit, Hep3B; details: read-out: Antiproliferative effect (inhibition ratio) Hep3B
# Excerpt: as §1
# [6] = system: Jurkat E6-1 human T-cell lymphoma; test: Tumor cell inhibition ratio, CCK-8 kit, Jurkat E6-1; details: Jurkat E6.1, read-out: Antiproliferative effect (inhibition ratio) E6-1
# Excerpt: as §1
# [7] = system: A549 human lung cancer cells; test: Tumor cell inhibition ratio, CCK-8 kit, A549; details: A549, read-out: Antiproliferative effect (inhibition ratio) A549
# Excerpt: as §1
# [8] = system: Colo320 human rectal cancer cells; test: Tumor cell inhibition ratio, CCK-8 kit, Colo320; details: COLO 320, read-out: Antiproliferative effect (inhibition ratio) Colo320
# Excerpt: as §1
# [9] = system: Hut78 T-Lymphocytic Leukemia cells; test: Tumor cell inhibition ratio, CCK-8 kit, Hut78; details: Homo sapiens, HuT78, read-out: Antiproliferative effect (inhibition ratio) Hut-78
# Excerpt: as §1
# aurora kinase B = target: T1, aurora kinase B (Homo sapiens, UniProt Q96GD4); test: Aurora kinase B inhibition in vitro (Invitrogen aurora kinase screening kit PV3174); type: biochemical
# T1 construct: purchased Invitrogen PV3174
# T1 sequence (Q96GD4 whole entry): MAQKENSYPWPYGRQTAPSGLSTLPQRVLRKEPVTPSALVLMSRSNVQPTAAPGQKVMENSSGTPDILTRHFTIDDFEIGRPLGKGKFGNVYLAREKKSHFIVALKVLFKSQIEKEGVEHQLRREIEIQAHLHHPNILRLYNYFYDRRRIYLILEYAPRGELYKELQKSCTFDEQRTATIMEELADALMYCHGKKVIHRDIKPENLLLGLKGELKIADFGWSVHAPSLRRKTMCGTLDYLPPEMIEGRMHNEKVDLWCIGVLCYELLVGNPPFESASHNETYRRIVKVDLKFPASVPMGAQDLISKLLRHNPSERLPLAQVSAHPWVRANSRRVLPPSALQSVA
# Sequence of EGFR tyrosine kinase (P00533 25-1210): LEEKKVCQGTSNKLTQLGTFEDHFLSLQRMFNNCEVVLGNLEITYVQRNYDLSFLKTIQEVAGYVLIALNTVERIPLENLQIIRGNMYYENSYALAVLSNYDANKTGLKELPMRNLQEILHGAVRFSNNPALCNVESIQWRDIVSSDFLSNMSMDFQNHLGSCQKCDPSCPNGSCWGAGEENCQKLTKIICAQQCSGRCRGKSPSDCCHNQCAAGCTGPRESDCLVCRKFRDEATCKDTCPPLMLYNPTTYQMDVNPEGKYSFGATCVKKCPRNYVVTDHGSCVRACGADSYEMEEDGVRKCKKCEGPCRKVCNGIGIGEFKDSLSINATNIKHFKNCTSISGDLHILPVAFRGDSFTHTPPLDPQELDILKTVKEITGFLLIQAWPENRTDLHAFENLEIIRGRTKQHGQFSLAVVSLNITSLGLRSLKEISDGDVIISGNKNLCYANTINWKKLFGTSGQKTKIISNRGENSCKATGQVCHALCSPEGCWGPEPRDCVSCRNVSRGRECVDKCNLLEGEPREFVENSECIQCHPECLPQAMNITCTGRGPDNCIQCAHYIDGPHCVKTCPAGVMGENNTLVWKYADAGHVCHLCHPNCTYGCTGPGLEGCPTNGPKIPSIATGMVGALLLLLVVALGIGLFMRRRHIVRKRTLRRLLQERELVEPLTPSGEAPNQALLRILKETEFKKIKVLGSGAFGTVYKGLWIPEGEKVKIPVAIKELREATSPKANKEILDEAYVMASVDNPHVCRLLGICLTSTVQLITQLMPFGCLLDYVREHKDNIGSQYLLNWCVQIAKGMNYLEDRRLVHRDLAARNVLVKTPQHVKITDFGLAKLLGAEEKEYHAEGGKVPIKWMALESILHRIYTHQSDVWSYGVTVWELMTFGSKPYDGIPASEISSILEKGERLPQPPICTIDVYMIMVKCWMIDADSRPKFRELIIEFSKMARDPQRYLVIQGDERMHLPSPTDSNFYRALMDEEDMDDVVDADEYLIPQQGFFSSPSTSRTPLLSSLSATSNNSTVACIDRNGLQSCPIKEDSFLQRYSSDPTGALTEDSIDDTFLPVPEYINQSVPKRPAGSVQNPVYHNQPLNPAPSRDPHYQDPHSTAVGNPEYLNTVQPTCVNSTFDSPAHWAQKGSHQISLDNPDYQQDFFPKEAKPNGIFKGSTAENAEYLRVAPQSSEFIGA
The inhibition ratio of the compound on EGFR(%) (EGFR tyrosine kinase; 40 μM),The inhibition ratio of the compound on EGFR(%) (EGFR tyrosine kinase; 200 μM),The inhibition ratio of the compound on Aurora B(%) (aurora kinase B; 40 μM),The inhibition ratio of the compound on Aurora B(%) (aurora kinase B; 200 μM),SMILES,inhibition at 10 µM [1] [%],inhibition at 100 µM [1] [%],inhibition at 10 µM [2] [%],inhibition at 100 µM [2] [%],inhibition at 10 µM [3] [%],inhibition at 100 µM [3] [%],inhibition at 10 µM [4] [%],inhibition at 100 µM [4] [%],inhibition at 10 µM [5] [%],inhibition at 100 µM [5] [%],inhibition at 10 µM [6] [%],inhibition at 100 µM [6] [%],inhibition at 10 µM [7] [%],inhibition at 100 µM [7] [%],inhibition at 10 µM [8] [%],inhibition at 100 µM [8] [%],other results
49.5,81.6,39.5,83.6,"COCCOc1cc2c(cc1OCCOC)C1=Nc3cccc(F)c3CN1C=N2 [Compound V-3, 9-fluoro-2,3-bis(2-methoxyethoxy)-8H-quinazolino[4,3-b]quinazoline mesylate]",43.1,88.8,34,87,30.9,75.4,3.38,84.1,42.3,80.7,42,78,44.6,76.2,34.8,79,inhibition at 10 µM [9]: 44.1%; inhibition at 100 µM [9]: 84.1%
48.7,93.2,38.7,91.5,"C#Cc1cccc2c1CN1C=Nc3cc(OCCOC)c(OCCOC)cc3C1=N2.Cl [Compound V-4, 9-ethynyl-2,3-bis(2-methoxyethoxy)-8H-quinazolino[4,3-b]quinazoline hydrochloride trihydrate]",31.4,87.6,22.2,62.7,39.7,85.9,31.3,92.6,33.5,79,6.85,19.8,48.6,78.7,48.9,83.4,inhibition at 10 µM [9]: 44.1%; inhibition at 100 µM [9]: 85%
–,–,–,–,"C#Cc1cccc2c1CN1C=Nc3cc(OC)c(OCCCN4CCOCC4)cc3C1=N2 [Compound V-26, 4-(3-((9-ethynyl-3-methoxy-8H-quinazolino[4,3-b]quinazoline-2-yl)oxy)propyl)morpholine]",4.29,11.7,5.86,30.3,40.7,76.6,38,71.4,28.4,89.5,44.6,85.4,27.7,93.6,32.1,81.4,inhibition at 10 µM [9]: 32.1%; inhibition at 100 µM [9]: 72.4%
35.2,86.5,11.2,78.9,COc1cc2c(cc1OCCCN1CCOCC1)C1=Nc3cc(COS(C)(=O)=O)cc([N+](=O)[O-])c3CN1C=N2 [Compound V-29],–,–,–,–,–,–,–,–,–,–,–,–,–,–,–,–,–
–,–,–,–,"COc1cc2c(cc1OCCCN1CCNCC1)C1=Nc3cccc(F)c3CN1C=N2 [Compound V-25, 9-fluoro-3-methoxy-2-(3-(piperazinyl-1-yl)propoxy)-8H-quinazolino[4,3-b]quinazoline]",44.1,82.8,53.4,64.4,44.2,88.6,20.4,77,21.3,64.7,31.1,81.3,47,79.3,33.5,79.2,inhibition at 10 µM [9]: 19%; inhibition at 100 µM [9]: 21.9%
–,–,–,–,"COc1cc2c(cc1OCCCN1CCOCC1)C1=Nc3ccc(F)c(Cl)c3CN1C=N2 [Compound V-23, 4-(3-((9-chloro-10-fluoro-3-methoxy-8H-quinazolino[4,3-b]quinazoline-2-yl)oxy)propyl)morpholine di-p-toluenesulfonate]",58.7,73.4,30.7,97.6,21.5,98.8,20.7,52.2,27.1,48.7,56.3,77.5,10.4,22.5,52.3,99.5,inhibition at 10 µM [9]: 42%; inhibition at 100 µM [9]: 99.8%
21.6,72.6,17.8,92.6,"CS(=O)(=O)CCNCc1ccc(-c2ccc3c(c2)C2=Nc4ccc(F)c(Cl)c4CN2C=N3)o1 [Compound V-34, N-((5-(9-chloro-10-fluoro-8H-quinazolino[4,3-b]quinazoline-2-yl)furan-2-yl)methyl)-2-(methylsulfonyl)ethylamine]",–,–,–,–,–,–,–,–,–,–,–,–,–,–,–,–,–
55.6,87.9,52.6,97.9,"CS(=O)(=O)CCNCc1ccc(-c2ccc3c(c2)C2=Nc4cc(Cl)ccc4CN2C=N3)o1 [Compound V-36, N-((5-(11-chloro-8H-quinazolino[4,3-b]quinazoline-2-yl)furan-2-yl)methyl)-2-(methylsulfonyl)ethylamine]",–,–,–,–,–,–,–,–,–,–,–,–,–,–,–,–,–
13.3,75.8,3.3,79.8,"C#Cc1cccc2c1CN1C=Nc3ccc(-c4ccc(CNCCS(C)(=O)=O)o4)cc3C1=N2 [Compound V-35, N-((5-(9-ethynyl-8H-quinazolino[4,3-b]quinazoline-2-yl)furan-2-yl)methyl)-2-(methylsulfonyl)ethylamine]",–,–,–,–,–,–,–,–,–,–,–,–,–,–,–,–,–
27.8,82.1,46.3,79.6,"COc1cc2c(cc1OC)C1=Nc3ccc(F)c(Cl)c3CN1C=N2 [Compound V-30, 9-chloro-10-fluoro-2,3-dimethoxy-8H-quinazolino[4,3-b]quinazoline]",–,–,–,–,–,–,–,–,–,–,–,–,–,–,–,–,–
–,–,–,–,"COc1cc2c(cc1OCCCN1CCOCC1)C1=Nc3cccc(C#N)c3CN1C=N2 [Compound V-27, 3-methoxy-2-(3-morpholinylpropoxy)-8H-quinazolino[4,3-b]quinazoline-9-nitrile]",22.4,62.2,25.2,84,41.8,99.8,12,79.7,2.44,67.3,24,75.4,39.8,80,34.5,84.8,inhibition at 10 µM [9]: 65.6%; inhibition at 100 µM [9]: 95.9%
–,–,–,–,"COCCOc1cc2c(cc1OCCOC)C1=Nc3cc(CO)cc(N)c3CN1C=N2 [Compound V-21, 9-amino-11-hydroxymethyl-2,3-bis(2-methoxyethoxy)-8H-quinazolino[4,3-b]quinazoline]",26.9,81.6,27.6,62.6,52.7,89.4,67,74.9,21.8,86.3,43.5,90.3,45.3,78,31.8,87,inhibition at 10 µM [9]: 10.3%; inhibition at 100 µM [9]: 52.7%
25.8,62.7,40.1,87.9,"COCCOc1cc2c(cc1OCCOC)C1=Nc3cccc(NC(=O)c4ccccc4)c3CN1C=N2 [Compound V-12, N-{2,3-bis(2-methoxyethoxy)-8H-quinazolino[4,3-b]quinazoline}benzamide]",–,–,–,–,–,–,–,–,–,–,–,–,–,–,–,–,–

SMILES,The inhibition ratio of the compound on EGFR(%) (EGFR tyrosine kinase; 40 μM),The inhibition ratio of the compound on EGFR(%) (EGFR tyrosine kinase; 200 μM),The inhibition ratio of the compound on Aurora B(%) (aurora kinase B; 40 μM),The inhibition ratio of the compound on Aurora B(%) (aurora kinase B; 200 μM),inhibition at 10 µM [1] [%],inhibition at 100 µM [1] [%],inhibition at 10 µM [2] [%],inhibition at 100 µM [2] [%],inhibition at 10 µM [3] [%],inhibition at 100 µM [3] [%],inhibition at 10 µM [4] [%],inhibition at 100 µM [4] [%],inhibition at 10 µM [5] [%],inhibition at 100 µM [5] [%],inhibition at 10 µM [6] [%],inhibition at 100 µM [6] [%],inhibition at 10 µM [7] [%],inhibition at 100 µM [7] [%],inhibition at 10 µM [8] [%],inhibition at 100 µM [8] [%],other results
"Cc1cc(Nc2cc(N3CCN(C)CC3)nc(Sc3ccc(NC(=O)C4CC4)cc3)n2)n[nH]1 [VX-680, reference compound]",–,–,35.2,81.6,–,–,–,–,–,–,–,–,–,–,–,–,–,–,–,–,–
